Results on six compounds are retold here after patent publication US11220503B2, “Phthalazine derivatives, preparation method, pharmaceutical composition and usage thereof” (Shanghai SIMR Biotech Co., Ltd., priority 2015, dated 2022).

Each structure is given as a SMILES string.

For one series, the target named is T1, α5-GABAA (Homo sapiens, UniProt P31644).
T1 sequence (P31644 32-462): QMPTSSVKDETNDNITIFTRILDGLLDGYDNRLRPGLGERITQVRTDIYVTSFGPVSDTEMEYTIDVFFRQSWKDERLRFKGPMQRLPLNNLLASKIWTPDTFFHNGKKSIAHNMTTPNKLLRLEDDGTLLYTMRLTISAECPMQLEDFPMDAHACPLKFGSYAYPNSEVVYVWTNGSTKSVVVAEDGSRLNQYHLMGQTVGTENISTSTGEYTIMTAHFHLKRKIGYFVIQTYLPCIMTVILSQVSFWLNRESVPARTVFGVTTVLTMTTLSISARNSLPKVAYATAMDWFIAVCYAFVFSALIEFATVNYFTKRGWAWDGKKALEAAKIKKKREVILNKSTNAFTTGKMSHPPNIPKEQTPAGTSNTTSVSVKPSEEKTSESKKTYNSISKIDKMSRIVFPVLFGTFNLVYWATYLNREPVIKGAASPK
Particulars: cited from earlier work.

Series [1] deals with T2, α5β3γ2 receptor (Homo sapiens, UniProt P18507+P31644).
T2 construct: expressed in transfected cells; host or cells: HEK-293 (stably transfected)
T2 sequence (P28472 26-473 isoform P28472-2 partner limits assumed, one chain of several): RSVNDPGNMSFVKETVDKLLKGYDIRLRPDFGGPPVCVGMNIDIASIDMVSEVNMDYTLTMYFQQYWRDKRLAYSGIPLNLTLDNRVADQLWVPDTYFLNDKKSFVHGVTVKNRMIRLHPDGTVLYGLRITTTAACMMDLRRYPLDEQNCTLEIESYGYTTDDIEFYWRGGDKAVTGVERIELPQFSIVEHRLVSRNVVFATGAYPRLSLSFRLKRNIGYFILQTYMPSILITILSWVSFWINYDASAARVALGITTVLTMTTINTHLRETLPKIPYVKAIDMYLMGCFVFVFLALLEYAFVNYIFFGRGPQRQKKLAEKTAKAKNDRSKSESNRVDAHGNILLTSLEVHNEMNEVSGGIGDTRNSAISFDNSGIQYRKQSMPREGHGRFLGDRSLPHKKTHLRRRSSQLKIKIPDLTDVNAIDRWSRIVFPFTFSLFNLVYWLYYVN
T2 sequence (P18507 40-475, one chain of several): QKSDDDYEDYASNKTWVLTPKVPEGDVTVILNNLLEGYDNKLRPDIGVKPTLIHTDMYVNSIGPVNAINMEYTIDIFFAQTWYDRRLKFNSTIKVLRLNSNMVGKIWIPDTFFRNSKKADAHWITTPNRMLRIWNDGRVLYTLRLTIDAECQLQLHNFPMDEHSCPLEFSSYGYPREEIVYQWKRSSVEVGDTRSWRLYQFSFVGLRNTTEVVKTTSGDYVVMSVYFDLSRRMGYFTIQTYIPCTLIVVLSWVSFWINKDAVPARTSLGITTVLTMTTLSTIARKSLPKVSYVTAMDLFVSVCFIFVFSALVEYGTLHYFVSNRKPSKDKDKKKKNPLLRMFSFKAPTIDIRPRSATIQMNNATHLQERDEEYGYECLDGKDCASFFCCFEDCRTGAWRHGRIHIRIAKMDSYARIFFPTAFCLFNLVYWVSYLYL
Put plainly: Cell level screening: whole cell patch clamp, inverse agonist efficacy. The series is classed as cell-based. Conditions: for inhibition at 0.1 µM: HEK293, compound 100 nM, GABA 0.05-0.1 μM, HEK293 α5β3γ2, clamped at −60 mV, (Ipost-Ipre)*100/Ipre, read-out: inverse agonism efficacy(%); for inverse agonism efficacy of the compound/α5IA inverse agonism efficacy: ratio to α5IA, compound 100 nM. The procedure: (§1) The inventors used electrophysiological methods to assay the inverse agonist efficacy of the substance to be tested. The detailed procedures are as follows: (1) Different subunits of GABAA receptors were expressed in human embryonic kidney cells 293 (HEK293). The cells were cultured in a culture medium and used as a cell model for screening potential analgesics. The α, β and γ subunits are necessary to form complete functional GABAA receptors. In this example, the inventor has established the following cell model: (a) α5 subunit (protein sequence is GenBank accession number: NP_001158509), β3 subunit (protein sequence is GenBank accession number: NP_068712) and γ2 subunit (protein sequence is GenBank accession number: NP_944494) were expressed in HEK-293 cell lines at the same time, which formed the complete functional GABAA receptors. (2) Cells were stably transfected HEK-293 cells expressing α5β3γ2 receptor, which were labeled by green fluorescent protein (GFP). Cells were grown in 10 cm dishes. The cells were passaged after reaching 80-90% confluence. During passaging, the culture medium was removed and discarded, 3 mL DMEM medium (Gibco™) was added to the dishes, the dishes were shaken slightly, and DMEM was removed and discarded. 3 mL Trypsin (Trypsin-EDTA 0.05%, Gibco™) was added and cells were digested at 37° C. for 3 minutes. Then 3 mL complete growth medium (DMEM+10% horse serum (Gibco™)) was added and the cells at the bottom of the culture dishes were dispersed. The cell suspension were transferred to a 15 mL centrifugal tube (Corning®) and then centrifuged at 200 g for 3 minutes. The supernatant was discarded, 4 mL complete growth medium was added, and the cells were resuspended by gently blowing. The cell suspension was diluted by 1:5 or 1:10 for subculturing. The cell suspension was diluted by 1:12 for electrophysiology experiment, which are added to the 24 well plate (Corning®) which has a glass slide pre-treated with poly-D-lysine. The cells were adhered to the slide before the experiment was conducted. The cells were maintained in culture for no more than 24 hours before use. (3) Compound concentration: for screening, all compounds were diluted to a final concentration of 100 nM. GABA was diluted at the concentration of 0.05-0.1 μM. The compounds were at the concentration of 1 nM, 10 nM, 50 nM, 100 nM and 1000 nM in dose-inverse agonism efficacy (%) experiment. The whole cell patch clamp technique was used in electrophysiology experiments. The extracellular solution (ECS) contained: 150 mM NaCl, 5 mM KCl, 2.5 mM CaCl2, 1 mM MgCl2, 10 mM HEPES and 10 mM glucose (pH 7.4); Patch electrodes were filled with an intracellular solution containing: 140 mM KCl, 5 mM EGTA, 10 mM HEPES (adjusted to pH 7.4 with KOH and to 320-330 mOsm with water). The currents were recorded by an EPC-10 amplifier and the PatchMaster software (HEKA). Patch electrodes with a resistance of 5-6 MΩ were pulled from borosilicate glass (Sutter). The diluted compounds were perfused by OCTAFLOWII system. GFP positive and independently growing cells were selected for recording. During recording, the membrane voltage was clamped at −60 mV. During experiment, the cells were firstly perfused with ECS for 20 seconds. When the baseline reached to a stable state, cells were then perfused with GABA solution. Then the current induced by GABA can be detected. After about 20-40 seconds, the current was stable. ECS was switched to compounds solution and the effects of the compounds were detected. At last, the perfusion solution was switched to ECS. The experiment was finished when the post-baseline returned to the pre-baseline before compounds perfusion. Only the data whose pre-baseline and post-baseline are at almost the same level were used for analysis. GABA was diluted at the concentration of 0.05-0.1 μM in ECS. Then, compounds were diluted at the desired concentration in GABA ECS. (4) Currents were analyzed with the PatchMaster (HEKA) software. […]
For orientation: The patch-clamp technique gives a direct electrical read-out from membranes.

For series [2], the target named is T2, α5β3γ2 receptor. Put plainly: Supplementary data for cell level screening: new electrophysiology method (I. Lecker et al). The format is cell-based. Particulars: for Inverse agonism efficacy(%): new method, CsCl intracellular solution, GABA 0.1˜0.3 CM, other procedures as previous method; for inverse agonism efficacy of the compound/α5IA inverse agonism efficacy: ratio to the α5IA reference run above in the table (r4 or r29). The procedure: as §1, with “GABA was diluted at the concentration of 0.05-0.1 μM.” left out, “[…],” for “Patch electrodes were filled with an intracellular solution containing: 140 mM KCl,”, “([…]” for “(adjusted to pH 7.4 with KOH and to 320-330 mOsm with”, “GABA was diluted at the concentration of 0.05-0.1 μM in ECS.” left out, “software. The GABA currents before (Ipre) and after (Ipost) compounds perfusion were recorded respectively. The efficacies of compounds were calculated by the following equation: inverse agonism efficacy=(Ipost-Ipre)*100/Ipre. N indicates experiment numbers.” for “software.”

The nature of series [3]: Compound tissue distribution (brain/plasma). The series is classed as in vivo. Conditions: brain and plasma, po; rat, 1 mg/kg p.o. in 5% DMSO+70% PEG400+25% H2O, one hour; read-out: Brain/Plasma ratio. The procedure:
The distribution ratio of blood brain tissue was calculated by comparing the concentration of compound in rat plasma and brain tissue. The experimental animals were divided into two groups, the plasma group and the brain group, each with three. To measure brain to plasma ratio, rats were administed compounds in 50% PEG400 p.o. at a dose of 10 mg compound to be tested/kg. One hour later, plasma and brain samples were taken. Concentrations of compounds in brain and plasma were detected using LC-MS/MS-AJ (Triple Quad 5500) assay and analyzed using Phoenix WinNonlin.
We also measured the brain to plasma ratio of compound #24. The experimental animals were divided into two groups, the plasma group and the brain group, each with three. To measure the brain to plasma ratio, Rats were administered compounds (1 mg/kg in 5% DMSO+70% PEG400+25% H2O p.o.). One hour later, plasma and brain samples were taken. Concentrations of compounds in brain and plasma were detected using a LC-MS/MS-AJ (Triple Quad 5500) assay and analyzed using Phoenix WinNonlin.

For the compound `CCOC(=O)c1ncn2c1[C@@H]1CCCN1C(=O)c1cc(OC)ccc1-2` [L-655,708], the inhibition efficacy at α5-GABAA (GABA 1 μM, highest dose of L-655,708) was ~15%. The “inhibition of the current induced by low level GABA” value at α5-GABAA (GABA 5, 50 and 500 nM) was “in the concentration dependent manner”. Also, the “inhibition on the current induced by GABA” value on α5-GABAA (GABA concentration higher than 1 μM) is “no inhibition”.
As to `Cc1cc(-c2nnc3c4ccccc4c(OCc4ccc(C(=O)N[C@H](C)CO)cn4)nn23)no1` [Compound 02, (R)—N-(1-hydroxypropan-2-yl)-6-((3-(5-methylisoxazol-3-yl)-[1,2,4]triazolo[3,4-a]phthalazin-6-yloxy)methyl)nicotinamide], at α5β3γ2 receptor [1], the inhibition at 0.1 µM was 52.2% and the “inverse agonism efficacy of the compound/α5IA inverse agonism efficacy” value was 2.313. Also, on α5β3γ2 receptor [2], the “Inverse agonism efficacy(%)” value is listed as −21.33% and the “inverse agonism efficacy of the compound/α5IA inverse agonism efficacy” value is 1.229.
With `Cc1cc(-c2nnc3c4ccccc4c(OCc4ccc(C(=O)NCC5CC5)cn4)nn23)no1` [Compound 24, N-(cyclopropylmethyl)-6-(((3-(5-methylisoxazol-3-yl)-[1,2,4]triazolo[3,4-a]phthalazin-6-yl)oxy)methyl)nicotinamide], at α5β3γ2 receptor [2], the “Inverse agonism efficacy(%)” value is recorded as −34.5% and the “inverse agonism efficacy of the compound/α5IA inverse agonism efficacy” value is 1.855. For the same compound, the Kp at 1 h in series [3] was found to be 0.044.
On to `O=C(NC1CCOC1)c1ccc(COc2nn3c(-c4cc(CO)on4)nnc3c3ccccc23)nc1` (stereo not shown) [Compound 47, 6-(((3-(5-(hydroxymethyl)isoxazol-3-yl)-[1,2,4]triazol[3,4-a]phthalazin-6-yl)oxy)methyl)-N-(tetrahydrofuran-3-yl)nicotinamide], for which, on α5β3γ2 receptor [1], the inhibition at 0.1 µM turned out to be 51.5% and the “inverse agonism efficacy of the compound/α5IA inverse agonism efficacy” value was determined as 2.284. For the same compound, on α5β3γ2 receptor [2], the “Inverse agonism efficacy(%)” value was −26.875% and the “inverse agonism efficacy of the compound/α5IA inverse agonism efficacy” value was determined as 1.547.
For `Cc1cc(-c2nnc3c4ccccc4c(OCc4ccc(C(=O)N[C@H]5CCC[C@@H]5O)cn4)nn23)no1` [Compound 03, N-((1S,2S)-2-hydroxycyclopentyl)-6-(((3-(5-methylisoxazol-3-yl)-[1,2,4]triazolo[3,4-a]phthalazin-6-yl)oxy)methyl)nicotinamide] the same measures were 41.3%, 1.832, −29.33% and 1.689.
Regarding `O=C(NC1CCC1)c1ccc(COc2nn3c(-c4cc(CO)on4)nnc3c3ccccc23)nc1` [Compound 48, N-cyclobutyl-6-(((3-(5-(hydroxymethyl)isoxazol-3-yl)-[1,2,4]triazolo[3,4-a]phthalazin-6-yl)oxy)methyl)nicotinamide], at α5β3γ2 receptor [1], the inhibition at 0.1 µM was 43.2% and the “inverse agonism efficacy of the compound/α5IA inverse agonism efficacy” value was found to be 1.915. Also, on α5β3γ2 receptor [2], the “Inverse agonism efficacy(%)” value is on record as −20% and the “inverse agonism efficacy of the compound/α5IA inverse agonism efficacy” value is listed as 1.151.
